Where two headings read alike, the source gives them in different places.
Columns and labels:
[1] = biological target: T1, human full length MEK1 kinase (Homo sapiens (Human), UniProt Q02750); details: read-out: MEK1 1 mM ATP IC50, BRAF-MEK-ERK cascade
From the text: (§2) A BRAF-MEK-ERK cascade assay is used to evaluate the effects of these compounds as inhibitors of the MAP kinase pathway. […] TR-FRET (Time resolved fluorescence resonance energy transfer) detection technology is used for the read out.

[2] = biological target: T1, human full length MEK1 kinase; assay: biochemical
From the text: as §2

ABL1 = ABL1 (Homo sapiens (Human), UniProt P00519); assay: Kinase Panel screen: ABL1; type: biochemical
From the text: (§1) Compounds of the invention are screened, using assay conditions known in the art, against some or all of the “Kinase Panel” comprising ABL1, ABL1 (T315I), ACVR1, AKT1, ALK, AURKA, AXL, BTK, CAMK2D, CDK1B, CDK2A, CDK4D1, CSK, CSNK1G3, EGFR, EPHA4, EPHB4, ERBB4, FGFR1, FGFR2, FGFR3, FGFR3 (K650E), FGFR4, FLT3 (D835Y), IGF1R, GSK3B, INSR, IRAK4, JAK1, JAK2, JAK3, KDR, KIT, LCK, LYN, MAP3K8, MAPK1, MAPK10, MAPK14, MAPKAPK2, MAPKAPK5, MET, MKNK1, MKNK2, PAK2, PDGFRa, PDPK1, PIM2, PKN1, PKN2, PLK1, PRKACA, PRKCA, PRKCQ, RET, ROCK2, RPS6 KB1, SRC, SYK, TYK2, WNK1, ZAP70, PIKSCD, PIK3CG, MTOR, PIK3C3, PIK3CA, PIK3CB and PIK4CB.

LCK = LCK (Homo sapiens (Human), UniProt P06239); assay: Kinase Panel screen: LCK; type: biochemical
Chain of LCK (P06239 whole entry, species assumed): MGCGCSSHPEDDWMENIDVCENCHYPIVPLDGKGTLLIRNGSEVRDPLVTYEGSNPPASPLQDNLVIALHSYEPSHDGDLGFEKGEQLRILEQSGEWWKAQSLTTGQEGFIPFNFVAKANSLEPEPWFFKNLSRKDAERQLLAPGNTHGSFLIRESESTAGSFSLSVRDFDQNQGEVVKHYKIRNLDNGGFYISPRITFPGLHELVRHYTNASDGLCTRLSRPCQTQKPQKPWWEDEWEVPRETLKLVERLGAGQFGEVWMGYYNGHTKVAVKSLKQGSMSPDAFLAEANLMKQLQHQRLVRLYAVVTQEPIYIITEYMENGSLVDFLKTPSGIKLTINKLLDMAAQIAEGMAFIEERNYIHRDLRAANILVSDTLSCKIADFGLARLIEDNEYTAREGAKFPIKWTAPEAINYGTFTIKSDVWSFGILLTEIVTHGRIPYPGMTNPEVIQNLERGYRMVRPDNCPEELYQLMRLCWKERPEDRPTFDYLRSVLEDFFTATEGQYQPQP
From the text: as §1

LYN = LYN (Homo sapiens (Human), UniProt P07948); assay: Kinase Panel screen: LYN; type: biochemical
Chain of LYN (P07948 whole entry, species assumed): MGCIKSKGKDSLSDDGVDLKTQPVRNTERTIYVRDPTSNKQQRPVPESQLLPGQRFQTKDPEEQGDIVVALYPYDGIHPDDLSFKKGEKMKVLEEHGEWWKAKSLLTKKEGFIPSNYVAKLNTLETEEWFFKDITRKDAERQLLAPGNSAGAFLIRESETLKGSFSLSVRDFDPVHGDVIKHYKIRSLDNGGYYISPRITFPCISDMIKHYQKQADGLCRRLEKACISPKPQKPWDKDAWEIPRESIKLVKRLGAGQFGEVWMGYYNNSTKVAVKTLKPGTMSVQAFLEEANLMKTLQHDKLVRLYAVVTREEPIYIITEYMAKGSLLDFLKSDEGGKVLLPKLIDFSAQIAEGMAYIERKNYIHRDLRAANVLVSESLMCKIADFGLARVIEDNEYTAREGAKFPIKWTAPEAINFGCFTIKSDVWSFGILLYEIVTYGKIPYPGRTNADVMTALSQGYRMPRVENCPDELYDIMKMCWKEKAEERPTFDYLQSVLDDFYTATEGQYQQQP
From the text: as §1

PDGFRa = PDGFRa (Homo sapiens (Human), UniProt P16234); assay: Kinase Panel screen: PDGFRa; type: biochemical
Chain of PDGFRa (P16234 24-1089, species assumed): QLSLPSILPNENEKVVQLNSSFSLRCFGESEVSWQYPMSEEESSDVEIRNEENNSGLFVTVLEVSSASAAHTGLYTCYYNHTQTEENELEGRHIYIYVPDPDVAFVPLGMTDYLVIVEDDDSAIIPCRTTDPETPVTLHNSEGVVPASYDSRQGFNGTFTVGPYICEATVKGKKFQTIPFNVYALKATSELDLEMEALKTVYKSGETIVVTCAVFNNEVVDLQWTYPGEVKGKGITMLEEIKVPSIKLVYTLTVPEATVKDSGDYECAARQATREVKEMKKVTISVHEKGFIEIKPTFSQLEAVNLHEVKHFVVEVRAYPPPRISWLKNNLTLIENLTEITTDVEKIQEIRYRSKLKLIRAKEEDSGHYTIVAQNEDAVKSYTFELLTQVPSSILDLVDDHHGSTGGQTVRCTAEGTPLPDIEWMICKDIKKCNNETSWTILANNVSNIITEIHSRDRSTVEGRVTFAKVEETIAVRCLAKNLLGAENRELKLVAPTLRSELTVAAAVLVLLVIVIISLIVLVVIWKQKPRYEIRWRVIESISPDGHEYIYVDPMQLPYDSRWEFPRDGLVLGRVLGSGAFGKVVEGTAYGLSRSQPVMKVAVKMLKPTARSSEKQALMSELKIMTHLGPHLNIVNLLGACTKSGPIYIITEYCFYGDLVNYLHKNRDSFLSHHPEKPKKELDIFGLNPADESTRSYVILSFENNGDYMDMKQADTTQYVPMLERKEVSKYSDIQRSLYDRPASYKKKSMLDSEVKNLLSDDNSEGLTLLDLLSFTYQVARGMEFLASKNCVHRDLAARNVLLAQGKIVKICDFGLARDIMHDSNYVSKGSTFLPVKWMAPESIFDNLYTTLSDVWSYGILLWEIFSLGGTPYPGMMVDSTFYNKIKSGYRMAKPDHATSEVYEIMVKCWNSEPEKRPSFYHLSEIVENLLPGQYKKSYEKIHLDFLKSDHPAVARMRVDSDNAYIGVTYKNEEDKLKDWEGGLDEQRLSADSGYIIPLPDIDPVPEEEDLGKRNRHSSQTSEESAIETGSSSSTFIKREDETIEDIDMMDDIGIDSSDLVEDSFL
From the text: as §1

T1 sequence (Q02750 whole entry): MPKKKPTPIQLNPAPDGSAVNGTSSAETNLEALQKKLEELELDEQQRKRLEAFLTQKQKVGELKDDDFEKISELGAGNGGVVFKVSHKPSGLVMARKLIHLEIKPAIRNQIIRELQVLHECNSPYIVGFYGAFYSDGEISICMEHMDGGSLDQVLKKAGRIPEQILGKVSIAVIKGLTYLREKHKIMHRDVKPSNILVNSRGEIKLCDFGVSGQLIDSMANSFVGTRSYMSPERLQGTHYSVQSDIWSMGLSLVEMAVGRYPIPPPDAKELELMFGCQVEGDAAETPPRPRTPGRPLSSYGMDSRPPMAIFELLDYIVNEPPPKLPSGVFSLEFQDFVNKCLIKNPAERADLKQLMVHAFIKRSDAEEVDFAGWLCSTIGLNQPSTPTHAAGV
Chain of ABL1 (P00519 whole entry, species assumed): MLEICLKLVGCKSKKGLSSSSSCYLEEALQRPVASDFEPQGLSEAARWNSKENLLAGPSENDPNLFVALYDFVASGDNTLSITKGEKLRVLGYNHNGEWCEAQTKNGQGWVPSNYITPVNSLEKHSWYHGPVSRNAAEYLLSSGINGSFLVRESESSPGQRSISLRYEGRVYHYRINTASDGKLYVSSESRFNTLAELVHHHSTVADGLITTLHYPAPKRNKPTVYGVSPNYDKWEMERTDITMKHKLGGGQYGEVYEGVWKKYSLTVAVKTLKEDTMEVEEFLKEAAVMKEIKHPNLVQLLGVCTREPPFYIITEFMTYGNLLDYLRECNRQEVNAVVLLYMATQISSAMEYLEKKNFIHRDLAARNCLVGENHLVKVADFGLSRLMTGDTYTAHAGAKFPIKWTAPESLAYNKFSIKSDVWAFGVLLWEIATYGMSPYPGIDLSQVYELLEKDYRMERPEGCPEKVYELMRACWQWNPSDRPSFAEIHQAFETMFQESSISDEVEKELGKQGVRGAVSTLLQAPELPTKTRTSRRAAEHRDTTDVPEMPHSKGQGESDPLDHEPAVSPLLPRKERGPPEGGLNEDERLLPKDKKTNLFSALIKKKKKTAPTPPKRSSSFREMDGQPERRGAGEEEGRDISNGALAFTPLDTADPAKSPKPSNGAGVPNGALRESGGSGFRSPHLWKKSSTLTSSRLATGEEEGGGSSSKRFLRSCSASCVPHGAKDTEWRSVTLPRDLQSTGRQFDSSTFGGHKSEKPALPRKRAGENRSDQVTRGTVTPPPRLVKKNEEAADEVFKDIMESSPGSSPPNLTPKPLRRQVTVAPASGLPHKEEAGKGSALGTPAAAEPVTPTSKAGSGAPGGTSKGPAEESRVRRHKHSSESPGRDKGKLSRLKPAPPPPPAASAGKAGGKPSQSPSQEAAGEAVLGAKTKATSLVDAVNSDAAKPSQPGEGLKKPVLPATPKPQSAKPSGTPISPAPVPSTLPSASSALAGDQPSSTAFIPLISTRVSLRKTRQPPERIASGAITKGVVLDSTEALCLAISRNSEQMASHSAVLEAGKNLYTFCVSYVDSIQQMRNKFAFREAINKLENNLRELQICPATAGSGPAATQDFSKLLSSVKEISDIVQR

SMILES	IC50 [1] [nM]	IC50 [2] [nM]	IC50 (ABL1) [nM]	IC50 (LCK) [nM]	IC50 (LYN) [nM]	IC50 (PDGFRa) [nM]
Cc1nc2cnc3cc(F)c(-c4ccc(Oc5ncccn5)cc4Cl)cc3c2n1[C@H]1CCN(C(=O)CO)C[C@@H]1F [Example 1A, 1-((3S,4S)-4-(8-(2-chloro-4-(pyrimidin-2-yloxy)phenyl)-7-fluoro-2-methyl-1H-imidazo[4,5-c]quinolin-1-yl)-3-fluoropiperidin-1-yl)-2-hydroxyethanone]	5	5	–	–	–	–
Cc1nc2cnc3cc(F)c(-c4ccc(Oc5ncccn5)cc4Cl)cc3c2n1[C@@H]1CCN(C(=O)CO)C[C@H]1F [Example 1B, 1-((3R,4R)-4-(8-(2-chloro-4-(pyrimidin-2-yloxy)phenyl)-7-fluoro-2-methyl-1H-imidazo[4,5-c]quinolin-1-yl)-3-fluoropiperidin-1-yl)-2-hydroxyethanone]	138	138	–	–	–	–
COc1cc(Oc2ccccn2)ccc1-c1ccc2ncc3ncn(-c4ccc(CC#N)cc4)c3c2c1 [compound (B)]	–	–	20	7	30	50
